According to patent US10980769B2, “Tiglien-3-one derivatives” (QBIOTICS PTY LTD, priority 2005, dated 2021):

Tests used:
LK-2 mouse SCC = experiment: Intralesional injection of LK-2 SCC tumours in mice; assay type: in vivo
Experimental: Squamous Cell Carcinoma (SCC) tumours were established by the same method as for topical treatment but were allowed to grow for 15 days before drug treatment. 7 μg EBI-46 in 20 μL, saline was injected into each of 3 sides of the tumour. Tumour size was measured with calipers at appropriate intervals.
Animal experiments were conducted under Queensland Institute of Medical Research (QIMR) Animal Ethics Committee approvals. The B16 mouse melanoma model was obtained by injecting 0.5 million B16 mouse melanoma cells subcutaneously into each of the 2 flanks of a male C57BL/6 mouse. The human tumour xenografts were obtained by injecting 2 million of the respective tumour cell line into each of 4 sites on the flanks of male nude mice (BALB/c background). EBI-46 was applied: (a) topically by dilution of a concentrated solution in acetone into an isopropanol gel, once a day for 3 days; (b) intralesionally by injection into the tumour of drug dissolved in 25% propylene glycol-0.1 M saline, (c) systemically by injection intraperitoneally in 25% propylene glycol in 0.1 M saline. Tumour size was measured with electronic callipers in mm and converted to volume (cubic mm) using the formula: Tumour volume=length×breadth×breadth/2. Results
A pilot study was conducted on 6 mm×6 mm LK-2 tumours established in nude mice. Approximately 50 μL of a solution of EB548 fractions (approximately 20 μg EBI-46 in the EB548-35 fraction) in saline containing 20% acetone were injected in 3 sites around the periphery of each lesion. This was only done once.
With PEG 400 delivery, 10 μg EBI-46 in 25 μL solution was injected (29 gauge) with a 0.5 mL insulin needle into a 7 mm×7 mm tumour, highly visible on the left flank of a nude mouse.

[1] = test system: K562 leukemia, MCF-7 breast cancer, Colo-205 colon cancer and D04 and SKMel-5 melanoma; experiment: In vitro growth inhibition profile, sensitive versus other cell lines; assay type: cell-based, human
Experimental: In addition, scattering of MCF-7 and HT-29 colon tumour cells was observed, typical of PKC activators. […] Additionally, given their similarity in structure, EBI-47, EBI-59 and EBI-61 are also considered to be protein kinase C activators.
For growth inhibition assays, cells (2000-5000/well) were seeded in 96-well plates in duplicate, treated with drug next day and allowed to grow for a further 5-6 days. The plates were then washed in PBS (phosphate buffered saline, pH 7.2), fixed with ethanol and stained by addition of 50 μL 0.4% SRB (sulforhodamine) in 1% acetic acid. The plate was left at room temperature for a minimum of 15 minutes, then washed rapidly with tap water and then twice with 1% acetic acid. After addition of 100 μL/well of 10 mM Tris base (unbuffered, pH>9), plates were left for a minimum of 5 minutes, then the absorbance was read at 564 nm on the ELISA reader, with a 3 second prior shaking. After subtraction of a blank (wells with no cells, typically about 0.04), growth inhibition was calculated as % of the untreated control and plotted against dose. […]

D04 melanoma = experiment: Growth inhibition of cultured cells; assay type: cell-based; settings: human melanoma DO4
Experimental: (§1) Briefly, a range of tumour cells including mouse melanoma, human melanoma, mouse squamous cell carcinoma, human breast, human colon, human leukemia and human lung and normal human cells including normal human fibroblasts were seeded at 2-5,000 per microtitre well (96-well plate) in 10% FCS-RPMI 1640 culture medium, treated, and allowed to grow until the controls were nearly confluent (5-6 days). The wells were then washed twice with PBS, fix with ethanol for a minimum of 5 minutes and washed with water. SRB solution (50 μL of 0.4% in 1% acetic acid) was added and left at room temperature for a minimum of 15 minutes. The plate was washed rapidly with tap water and then twice with 1% acetic acid. After addition of 100 μL/well of 10 mM Tris base (unbuffered, pH>9), plates were left for a minimum of 5 minutes, then the absorbance was read at 564 nm on the ELISA reader, with a 3 second prior shaking. After subtraction of a blank (wells with no cells, absorbance typically about 0.04), growth inhibition was calculated as % of the untreated control and plotted against dose.
(§2) Briefly, a suspension of a range of tumour cells including mouse melanoma, human melanoma, mouse squamous cell carcinoma, human breast, human colon, human leukemia and human lung and normal human cells including normal human fibroblasts were seeded into round-bottom microtitre plates in 10% FCS-RPMI 1640 culture medium, treated and allowed to grow for 5-6 days. To measure cell growth, 20 μL of a combined MTS/PMS solution (Promega Cell ProliferationAssay Kit Cat #G5430) was added to each well of the 96 well assay plate. After 1-4 hours the plates were placed in the ELISA plate reader and the absorbance read at 490 nm. After subtraction of a blank (wells with no cells, absorbance typically about 0.4), growth inhibition was calculated as % of the untreated control and plotted against dose.
(§3) For growth inhibition assays, cells (2000-5000/well) were seeded in 96-well plates in duplicate, treated with drug next day and allowed to grow for a further 5-6 days. The plates were then washed in PBS (phosphate buffered saline, pH 7.2), fixed with ethanol and stained by addition of 50 μL 0.4% SRB (sulforhodamine) in 1% acetic acid. The plate was left at room temperature for a minimum of 15 minutes, then washed rapidly with tap water and then twice with 1% acetic acid. After addition of 100 μL/well of 10 mM Tris base (unbuffered, pH>9), plates were left for a minimum of 5 minutes, then the absorbance was read at 564 nm on the ELISA reader, with a 3 second prior shaking. After subtraction of a blank (wells with no cells, typically about 0.04), growth inhibition was calculated as % of the untreated control and plotted against dose.

human colon Colo205 = experiment: Growth inhibition of cultured cells; assay type: cell-based
Experimental: as §1, §2, §3

human leukemia K562 = experiment: Growth inhibition of cultured cells; assay type: cell-based
Experimental: as §1, §2, §3

[2] = test system: normal human fibroblasts (NFF); experiment: Growth inhibition of cultured cells; assay type: cell-based
Experimental: as §1, §2, §3

HOP62 lung = experiment: Growth inhibition of cultured cells; assay type: cell-based; settings: human lung H0P62
Experimental: as §1, §2, §3

human melanoma MM127 = experiment: Growth inhibition of cultured cells; assay type: cell-based
Experimental: as §1, §2, §3

human melanoma MM96L = experiment: Growth inhibition of cultured cells; assay type: cell-based
Experimental: as §1, §2, §3

human breast MCF-7 = experiment: Growth inhibition of cultured cells; assay type: cell-based; settings: human breast CF-7
Experimental: as §1, §2, §3

human lung A549 = experiment: Growth inhibition of cultured cells; assay type: cell-based
Experimental: as §1, §2, §3

human leukemia U937 = experiment: Growth inhibition of cultured cells; assay type: cell-based
Experimental: as §1, §2, §3

For C/C=C(\C)C(=O)OC1C(C)C2(O)C(C3OC3(CO)C(O)C3(O)C(=O)C(C)=CC32)C2C(C)(C)C12OC(=O)C(C)CC (stereo not drawn) [EBI-46, 12-tigloyl-13-(2-methylbutanoyl)-6,7-epoxy-4,5,9,12,13,20-hexahydroxy-1-tiglian-3-one], the “tumour at 16 hours” value (LK-2 mouse SCC; 10 μg in 25 μL PEG 400 containing 10% ethanol, 7 mm × 7 mm tumour) was “tumour lump had largely gone”, the “time mouse remained tumour-free” value (LK-2 mouse SCC; 10 μg in PEG 400 containing 10% ethanol, single injection) was “over 9 months” and the “systemic toxicity or lung metastases on post mortem” value (LK-2 mouse SCC; intralesional 21 ug) was “There were no signs of”. The tumour size (LK-2 mouse SCC; intralesional 21 ug (3 × 7 ug), 15-day established tumours) was “reduction of tumour size”, the “growth-inhibiting doses in sensitive cell lines lower than for other human tumour cell lines and normal human fibroblasts” value [1] was “approximately 100 fold” and the “Concentration of EBI-46 at which growth inhibition was observed” value (D04 melanoma) was under 100 ng/mL. For the same compound, the “Concentration of EBI-46 at which growth inhibition was observed” value (human colon Colo205) was under 100 ng/mL, the “Concentration of EBI-46 at which growth inhibition was observed” value (human leukemia K562) was under 100 ng/mL and the “Concentration of EBI-46 at which growth inhibition was observed” value [2] was “None observed at 10 μg/mL”. For the same compound, the “Concentration of EBI-46 at which growth inhibition was observed” value (HOP62 lung) was under 100 ng/mL, the “Concentration of EBI-46 at which growth inhibition was observed” value (human melanoma MM127) was under 100 ng/mL and the “Concentration of EBI-46 at which growth inhibition was observed” value (human melanoma MM96L) was “=/<2 μg/mL”. For the same compound, the “Concentration of EBI-46 at which growth inhibition was observed” value (human breast MCF-7) was under 100 ng/mL, the “Concentration of EBI-46 at which growth inhibition was observed” value (human lung A549) was under 100 ng/mL and the “Concentration of EBI-46 at which growth inhibition was observed” value (human leukemia U937) was under 100 ng/mL.
